Assay results reported in patent US12459921B2, “Isoindoline compound, preparation method, pharmaceutical composition and use thereof” (SHANGHAI INSTITUTE OF MATERIA MEDICA, CHINESE ACADEMY OF …, priority 2018, dated 2025).

tested on: MM.1S cells; experiment: Inhibitory effect on the proliferation of MM.1S, MTS cell viability test; assay type: cell-based; settings: Homo sapiens, MM1.S, 168 h, multiple myeloma MM.1S cells, 7 days incubation, read-out: Tumor cell inhibitory activity
In short: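 Viability measured by MTS (OD490 minus OD690 background, 3-4 h) after a 7-day exposure of 20,000 MM.1S cells/well to 5-fold serially diluted compound, 0.2% DMSO final. Inhibition calculated relative to DMSO wells; IC50 curve-fitted, averaged over three repeats.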

Question: With COc1ccc2c(c1)C1(CCN(CCCCCc3cccc4c3CN(C3CCC(=O)NC3=O)C4=O)CC1)C(=O)N2 (stereo not drawn) [Example 135, 3-(4-(5-(5-methoxy-2-oxospiro[indoline-3,4′-piperidine]-1′-)pentyl)-1-oxoisoindoline-2-)piperidine-2,6-dione] as the compound, how does the IC50 read?
Answer: The IC50 was 100 to 1000 nM.

Question: O=C1CCC(N2Cc3c(CCCCN4CCN(c5ccc(C(F)(F)F)cc5)CC4)cccc3C2=O)C(=O)N1 (stereo not drawn) [Example 45, 3-(1-oxo-4-(4-(4-(4-trifluoromethylphenyl)piperazine-1-)butyl)isoindoline-2-)piperidine-2,6-dione] was tested. Which IC50 did it give?
Answer: Its IC50 is less than 100 nM.

Question: Which IC50 does the source give for O=C1CCC(N2Cc3c(OCCCC(=O)N4CCN(c5ccccc5)CC4)cccc3C2=O)C(=O)N1 (stereo not drawn) [Example 28, 3-(1-oxo-4-(4-oxo-4-(4-phenylpiperazine-1-)butoxy)isoindoline-2-)piperidine-2,6-dione] here?
Answer: The IC50 was less than 100 nM.

Question: O=C1CCC(N2Cc3c(CCCCCN4CCC5(CC4)OCc4cc(Cl)ccc45)cccc3C2=O)C(=O)N1 (stereo not drawn) [Example 274, 3-(4-(5-(5-chloro-3H-spiro[isobenzofuran-1,4′-piperidin]-1-yl)pentyl)-1-oxoisoindoline-2-yl)piperidine-2,6-dione] was tested. Which IC50 did it give?
Answer: Its IC50 is 100 to 1000 nM.

Question: With CC(=O)N[C@@H](CCCc1cccc2c1CN(C1CCC(=O)NC1=O)C2=O)C(=O)NCc1ccc(F)cc1F (stereo partly drawn) [Example 178, (2S)-2-acetylamino-N-(2,4-difluorobenzyl)-5-(2-(2,6-dioxopiperidine-3-)-1-oxoisoindoline-4-)oxoisoindoline] as the compound, how does the IC50 read?
Answer: Its IC50 is 100 to 1000 nM.

Question: O=C1CCC(N2C(=O)c3cccc(OCCCCOc4ccnc5ccccc45)c3C2=O)C(=O)N1 (stereo not drawn) [Example 47, 2-(2,6-dioxopiperidine-3-)-4-(4-(quinoline-4-oxy)butoxy)isoindoline-1,3-dione] was tested. Which IC50 did it give?
Answer: The IC50 was less than 100 nM.

Question: Which IC50 does the source give for O=C1CCC(N2Cc3c(CCCOc4ccnc5ccccc45)cccc3C2=O)C(=O)N1 (stereo not drawn) [Example 2, 3-(1-oxo-4-(3-(quinoline-4-oxy)propyl)isoindoline-2-)piperidine-2,6-dione] here?
Answer: The IC50 was 100 to 1000 nM.

Question: For O=C1CCC(N2Cc3c(OCCCC(=O)N4CCc5ccccc54)cccc3C2=O)C(=O)N1 (stereo not drawn) [Example 116, 3-(4-(4-(indoline-1-)-4-oxobutoxy)-1-oxoisoindoline-2-)piperidine-2,6-dione], which IC50 is on record?
Answer: Its IC50 is less than 100 nM.

Question: For Cc1ccc2c(c1)C1(CCN(CCCOc3cccc4c3CN(C3CCC(=O)NC3=O)C4=O)CC1)OC2 (stereo not drawn) [Example 140, 3-(4-(3-(6-methyl-3H-spiro[isobenzofuran-1,4′-piperidine]-1′-)propoxy)-1-oxoisoindoline-2-)piperidine-2,6-dione], which IC50 is on record?
Answer: Its IC50 is less than 100 nM.

Question: How did the IC50 turn out when C[C@]1(N2Cc3c(OCCCN4CCC(C#N)(c5ccccc5OC(F)(F)F)CC4)cccc3C2=O)CCC(=O)NC1=O [Example 56, (S)-1-(3-((2-(3-methyl-2,6-dioxopiperidine-3-)-1-oxoisoindoline-4-)oxy)propyl)-4-(2-(trifluoromethoxy)phenyl)piperidine-4-carbonitrile] was run?
Answer: The IC50 was 1000 to 20000 nM.

Question: N[C@@H](CCCc1cccc2c1CN(C1CCC(=O)NC1=O)C2=O)C(=O)NC12CC3CC(CC(C3)C1)C2 (stereo partly drawn) [Example 174, (2S)—N-((3R,5R,7R)-adamantane-1-)-2-amino-5-(2-(2,6-dioxopiperidine-3-)-1-oxoisoindoline-4-)pentanamide] was tested. Which IC50 did it give?
Answer: The IC50 was greater than 20000 nM.

Question: With CC(=O)N[C@@H](CCCc1cccc2c1CN(C1CCC(=O)NC1=O)C2=O)C(=O)NC(c1ccccc1)c1ccccc1 (stereo partly drawn) [Example 181, (2S)-2-acetylamino-N-benzhydryl-5-(2-(2,6-dioxopiperidine-3-)-1-oxoisoindoline-4-) pentanamide] as the compound, how does the IC50 read?
Answer: The IC50 was 100 to 1000 nM.

Question: Which IC50 does the source give for Cc1cc(COCCCCOc2cccc3c2CN(C2CCC(=O)NC2=O)C3=O)c2ccccc2n1 (stereo not drawn) [Example 213, 3-(4-(4-((2-methylquinoline-4-)methoxy)butoxy)-1-oxoisoindoline-2-)piperidine-2,6-dione] here?
Answer: Its IC50 is 100 to 1000 nM.

Question: How did the IC50 turn out when COc1cccc(C2(C#N)CCN(CCCCCc3cccc4c3CN(C3CCC(=O)NC3=O)C4=O)CC2)c1OC (stereo not drawn) [Example 260, 4-(2,3-dimethoxyphenyl)-1-(5-(2-(2,6-dioxopiperidin-3-yl)-1-oxoisoindoline-4-yl)pentyl)piperidine-4-carbonitrile] was run?
Answer: Its IC50 is 100 to 1000 nM.

Question: Which IC50 does the source give for O=C1CCC(N2Cc3c(OCCCN4CCC5(CC4)OCc4ccc(F)cc45)cccc3C2=O)C(=O)N1 (stereo not drawn) [Example 142, 3-(4-(3-(6-fluoro-3H-spiro[isobenzofuran-1,4′-piperidine]-1′-)propoxy)-1-oxoisoindoline-2-)piperidine-2,6-dione] here?
Answer: Its IC50 is 100 to 1000 nM.

Question: For O=C1CCC(N2Cc3c(OCCCCN4CCC5(CC4)OCc4ccc(F)cc45)cccc3C2=O)C(=O)N1 (stereo not drawn) [Example 128, 3-(4-(4-(6-fluoro-3H-spiro[isobenzofuran-1,4′-piperidine]-1′-)butoxy)-1-oxoisoindoline-2-)piperidine-2,6-dione], which IC50 is on record?
Answer: Its IC50 is less than 100 nM.

Question: How did the IC50 turn out when Cc1cc(OCCCCOc2cc(F)cc3c2CN(C2CCC(=O)NC2=O)C3=O)c2ccccc2n1 (stereo not drawn) [Example 212, 3-(6-fluoro-4-(4-((2-methylquinoline-4-)oxy)butoxy)-1-oxoisoindoline-2-)piperidine-2,6-dione] was run?
Answer: The IC50 was less than 100 nM.

Question: Which IC50 does the source give for C[C@]1(N2C(=O)c3cccc(OCCCN4CCC(C#N)(c5ccccc5OC(F)(F)F)CC4)c3C2=O)CCC(=O)NC1=O [Example 58, (S)-1-(3-((2-(3-methyl-2,6-dioxopiperidine-3-)-1,3-dioxoisoindoline-4-)oxy)propyl)-4-(2-(trifluoromethoxy)phenyl)piperidine-4-carbonitrile] here?
Answer: The IC50 was 1000 to 20000 nM.

Question: How did the IC50 turn out when COc1cccc(C2(C#N)CCN(CCCCc3cccc4c3CN(C3CCC(=O)NC3=O)C4=O)CC2)c1OC (stereo not drawn) [Example 259, 4-(2,3-dimethoxyphenyl)-1-(4-(2-(2,6-dioxopiperidin-3-yl)-1-oxoisoindoline-4-yl)butyl)piperidine-4-carbonitrile] was run?
Answer: Its IC50 is 100 to 1000 nM.

Question: For CC(=O)N[C@@H](CCCc1cccc2c1CN(C1CCC(=O)NC1=O)C2=O)C(=O)NC12CC3CC(CC(C3)C1)C2 (stereo partly drawn) [Example 198, (2S)-2-acetylamino-N-((3R,5R,7R)-adamantane-1-)-5-(2-(2,6-dioxopiperidine-3-)-1-oxoisoindoline-4-)pentanamide], which IC50 is on record?
Answer: The IC50 was less than 100 nM.

Question: For O=C1CCC(N2Cc3c(CCCCCN4CCOc5ccccc54)cccc3C2=O)C(=O)N1 (stereo not drawn) [Example 105, 3-(4-(5-(2,3-dihydro-4H-benzo[b][1,4]oxazine-4-)pentyl)-1-oxoisoindoline-2-)piperidine-2,6-dione], which IC50 is on record?
Answer: Its IC50 is 100 to 1000 nM.

Question: Which IC50 does the source give for O=C1CCC(N2Cc3c(OCCCCCN4CCC5(CC4)OCc4ccc(F)cc45)cccc3C2=O)C(=O)N1 (stereo not drawn) [Example 144, 3-(4-((5-(6-fluoro-3H-spiro[isobenzofuran-1,4-piperidine]-1-)pentyl)oxy)-1-oxoisoindoline-2-)piperidine-2,6-dione] here?
Answer: Its IC50 is less than 100 nM.

Question: With N#CC1(c2ccccc2Cl)CCN(CCOc2cccc3c2CN(C2CCC(=O)NC2=O)C3=O)CC1 (stereo not drawn) [Example 64, 4-(2-chlorophenyl)-1-(2-((2-(2,6-dioxopiperidine-3-)-1-oxoisoindoline-4-)oxy)ethyl) piperidine-4-carbonitrile] as the compound, how does the IC50 read?
Answer: Its IC50 is 100 to 1000 nM.

Question: With Cc1ccc2c(c1)C1(CCN(CCCCCc3cccc4c3CN(C3CCC(=O)NC3=O)C4=O)CC1)OC2 (stereo not drawn) [Example 157, 3-(4-(5-(6-methyl-3H-spiro[isobenzofuran-1,4′-piperidine]-1-)pentyl)-1-oxoisoindoline-2-)piperidine-2,6-dione] as the compound, how does the IC50 read?
Answer: Its IC50 is less than 100 nM.

Question: How did the IC50 turn out when O=C1CCC(N2Cc3c(CCCCOc4ccnc5ccccc45)cccc3C2=O)C(=O)N1 (stereo not drawn) [Example 15, 3-(1-oxo-4-(4-(quinoline-4-oxy)butyl)isoindoline-2-)piperidine-2,6-dione] was run?
Answer: The IC50 was less than 100 nM.

Question: For C[C@]1(N2Cc3c(OCCCN4CCC(C#N)(c5cccc(OC(F)(F)F)c5)CC4)cccc3C2=O)CCC(=O)NC1=O [Example 60, (S)-1-(3-((2-(3-methyl-2,6-dioxopiperidine-3-)-1-oxoisoindoline-4-)oxy)propyl)-4-(3-(trifluoromethoxy)phenyl)piperidine-4-carbonitrile], which IC50 is on record?
Answer: The IC50 was 1000 to 20000 nM.

Question: For O=C1CCC(N2Cc3c(CCCCCN4CCN(c5ccc(Cl)c(Cl)c5)CC4)cccc3C2=O)C(=O)N1 (stereo not drawn) [Example 234, 3-(4-(5-(4-(3,4-dichlorophenyl)piperazine-1-yl)pentyl)-1-oxoisoindoline-2-yl)piperidine-2,6-dione], which IC50 is on record?
Answer: Its IC50 is 100 to 1000 nM.

Question: For O=C1CCC(N2Cc3c(CCCCN4CCN(c5ccccc5Cl)CC4)cccc3C2=O)C(=O)N1 (stereo not drawn) [Example 215, 3-(4-(4-(4-(2-chlorophenyl)piperazine-1-yl)butyl)-1-oxoisoindoline-2-yl) piperidine-2,6-dione], which IC50 is on record?
Answer: The IC50 was less than 100 nM.

Question: How did the IC50 turn out when C[C@]1(N2Cc3c(OCCCN4CCN(c5cccc(Cl)c5Cl)CC4)cccc3C2=O)CCC(=O)NC1=O [Example 25, (S)-3-(4-(3-(4-(2,3-dichlorophenyl)piperazine-1-)propoxy)-1-oxoisoindoline-2-)-3-methylpiperidine-2,6-dione] was run?
Answer: Its IC50 is 1000 to 20000 nM.

Question: N#CC1(c2ccccc2Cl)CCN(C(=O)CCCCOc2cccc3c2CN(C2CCC(=O)NC2=O)C3=O)CC1 (stereo not drawn) [Example 85, 4-(2-chlorophenyl)-1-(5-((2-(2,6-dioxopiperidine-3-)-1-oxoisoindoline-4-)oxy)valeryl)piperidine-4-carbonitrile] was tested. Which IC50 did it give?
Answer: The IC50 was less than 100 nM.

Question: For O=C1CCC(N2Cc3c(CCCCCOc4ccnc5ccccc45)cccc3C2=O)C(=O)N1 (stereo not drawn) [Example 1, 3-(1-oxo-4-(5-(quinoline-4-oxy)pentyl)isoindoline-2-)piperidine-2,6-dione], which IC50 is on record?
Answer: Its IC50 is less than 100 nM.

Question: With O=C1CCC(N2Cc3c(CCCCCN4CCCc5cc(Br)ccc54)cccc3C2=O)C(=O)N1 (stereo not drawn) [Example 106, 3-(4-(5-(6-bromo-3,4-dihydroquinoline-1(2H))pentyl)-1-oxoisoindoline-2-)piperidine-2,6-dione] as the compound, how does the IC50 read?
Answer: The IC50 was 100 to 1000 nM.

same assay, conditions: multiple myeloma MM.1S cells, 7 days incubation, read-out: Tumor cell inhibitory activity

Question: For N#CC1(c2ccc(O[C@H]3CCOC3)cc2)CCN(CCCCCc2cccc3c2CN(C2CCC(=O)NC2=O)C3=O)CC1 (stereo partly drawn) [Example 263, 1-(5-(2-(2,6-dioxopiperidin-3-yl)-1-oxoisoindolin-4-yl)pentyl)-4-(4-(((S)-tetrahydrofuran-3-yl)oxy)phenyl)piperidine-4-carbonitrile], which IC50 is on record?
Answer: The IC50 was 100 to 1000 nM.
